# Laboratory results as given in US20220409510A1, “Polypeptides And Methods For Improving Skin Conditions” (Interk Peptide Therapeutics Limited, priority 2018, published 2022).
# Non-standard residues stand in square brackets, D forms with d. No end group written: not given here.
# T1: polypeptide IK34720 (RSKAKNPLYRRRRRRRRR)
# T1 chain: RSKAKNPLYRRRRRRRRR
# B1: Human rheumatoid synovial fibroblast MMP-1 proenzyme, activated with APMA (protein)
# chain: FVLTEGNPRWEQTHLTYRIENYTPDLPRADVDHAIEKAFQLWSNVTPLTFTKVSEGQADIMISFVRGDHRDNSPFDGPGGNLAHAFQPGPGIGGDAHFDEDERWTNNFREYNLHRVAAHELGHSLGLSHSTDIGALMYPSYTFSGDVQLAQDDIDGIQAIYGRSQNPVQPIGPQTPKACDSKLTFDAITTIRGEVMFFKDRFYMRTNPFYPEVELNFISVFWPQLPNGLEAAYEFADRDEVRFFKGNKYWAVQGQNVLHGYPKDIYSSFGFPRTVKHIDAALSEENTGKTYFFVANKYWRYDEYKRSMDPGYPKMIAHDFPGIGHKVDAVFMKDGFFYFFHGTRQYKFDPKTKRILTLQKANSWFNCRKN
# How the values were obtained:
# [1] = system: CPDs in human skin explants; test: CPD formation in human skin explants after UV-irradiation; type: cell-based; conditions: 3 hrs post irradiation/treatment; Calcitriol 1 nM; IK34720 50, 250 or 500 uM; FIG. 12
# Procedure: Human skin removed at elective surgery was cleaned, dissected and cut into pieces of approx. 5 mm×5 mm. Each piece was placed in a well of a 96 well plate, with individual plates prepared to assess the effects 3 hrs post treatment. All samples were performed in triplicate for each treatment. Skin was subjected to UV-radiation from solar-simulated UV source for 1.5 h (UVR), or non-irradiation (SHAM). Given that human skin is thicker than mouse skin, human skin explants were exposed to a radiation dose three times higher than that used for mouse skin, i.e., 20 J/cm2 versus 7 J/cm2, respectively, and the output spectrum of the laboratory solar simulator has previously been reported (Rybchyn MS et al, J Invest Dermatol. 2018 May; 138(5):1146-1156) and treated immediately after with a vehicle control, Calcitriol (1 nM) or the polypeptide IK34720 (SEQ ID NO: 3) at concentrations of 50 μM, 250 μM or 500 uM.
# Samples harvested at 3 hrs were fixed, section, stained and quantified as described in Example 5.
# MMP1 = MMP1 expression in human skin explants after UV-irradiation (immunohistochemistry); type: cell-based; conditions: 3 hrs post irradiation/treatment; Calcitriol 1 nM; IK34720 50, 250 or 500 uM; FIG. 17
# Procedure: The effect of the polypeptide IK34720 (SEQ ID NO: 3) on MMP-1 activity in human skin was evaluated using the following protocol.
# FIGS. 17 and 18 illustrate the effect of the polypeptide IK34720 (SEQ ID NO: 3) on MMP1 expression, in accordance with the following protocol.
# Human skin (2× human explant tissues) removed at elective surgery was cleaned, dissected and cut into pieces of approx. 5mm×5mm. Each piece was placed in a well of a 96 well plate, with individual plates prepared to assess the effects 3 hrs post treatment. Skin was subjected to UV-radiation from solar-simulated UV source for 1.5 h (UVR), or non-irradiation (SHAM), and treated immediately after with a vehicle control, Calcitriol (1 nM) or the polypeptide IK34720 (SEQ ID NO: 3) at concentrations of 50 μM, 250 μM or 500 uM. In FIG. 17, IK50, IK250 and IK500 as μM concentrations refers to 15 μg, 75 μg and 150 μg of IK34720 per 120 μL culture medium/explant, respectively.
# Samples harvested at 3 hrs were fixed, sectioned, immunohistochemically stained for MMP1 and quantified for MMP1 expression, by expressing epidermal area stained for MMP1 as a function of total epidermal area examined.
# dermal fibroblasts = test: TBARS lipid peroxidation assay in UV irradiated dermal fibroblasts; type: cell-based; conditions: highest concentration (5 μM) of peptide; FIG. 19
# Procedure: The ability of the polypeptide RSKAKNPLYRRRRRRRRR to alter UV-induced oxidative damage of cell-derived lipids was examined using the TBARS thiobarbituric acid-reactive substances (TBARS) lipid peroxidation assay.
# After irradiation or sham-irradiation of dermal fibroblasts, supernatants (900 μL) were collected. In brief, 90 μL of butylated hydroxytoluene (2% w/w in ethanol) was added and samples kept frozen (−20° C.) until the TBARS assay. Petri dishes were washed twice with 1 mL of HBSS, cells scraped in 600 μL of water and 60 μL of 0.5% aqueous Triton X100 added to this solution, for protein determination carried out by the Lowry method (Lowry OH et al, J. Biol. Chem., 1951, 193:265-275). TBARS were fluorometrically assayed as described (Morlière P et al, Biochim. Biophys. Acta, 1991, 1084:261-268). Briefly, thawing samples were heated in the presence of thiobarbituric acid in acidic conditions, and TBARS extracted with 1-butanol and fluorometrically quantified (λexc=515 nm and λem=550 nm). Tetraethoxypropane, which quantitatively yields the malondialdehyde-thiobarbituric acid adduct in the assay conditions, was used for calibration. TBARS values, expressed in malondialdehyde (MDA) equivalents, were normalized to the cell protein for each Petri dish. Each TBARS determination was performed in triplicate (e.g., with three Petri dishes per data point).
# [2] = system: wound (skin punch, ID 12 mm); test: Murine wound model, percentage closure of the wound; type: in vivo, ICR mice; conditions: topical 10 ug per mouse daily for 10 consecutive days
# Excerpt: FIGS. 1 and 2 illustrate the effect of polypeptides IK34720 (SEQ ID NO: 3—RSKAKNPLYRRRRRRRRR) (FIG. 1) and the dextro-reverso sequence IK236770 (SEQ ID NO: 4—rrrrrrrrrylpnkaksr) (FIG. 2), on wound healing over 10 days in a murine wound model in accordance with the following protocol.
# Three groups of 8 male ICR mice with a mean weight of 22 g (±2 g) were used in the present study. The animals were housed in individual cages during the study. Under isoflurane gas anaesthesia, the shoulder and back region of each animal was shaved and a sharp punch (ID 12 mm) was used to induce a wound by removing the skin, including panniculus carnosus and adherent tissues on Day 1.
# Following induction of the wound the polypeptides IK34720 and IK236770 were topically administered to the site of the wound at a dosage of 10 μg per animal. […] An additional group which comprised the administration of Phosphate buffered Saline (PBS) at pH 7.4 was used as a negative control.
# The wound healing was analysed on Days 5, 7, 9 and 11 by tracing the periphery of the wound onto clear plastic sheets with the wound area calculated by an Image analyzer ProPlus (Media Cybernetics, Version 4.5.0.29. The percentage closure of the wound (%) was calculated. Percentage closure of the wound was determined on 5, 7, 9 and 11. ANOVA and Dunnett's test were applied to test significant significance between the treated groups (peptide and positive control groups) and the negative control group at each time point of measurement. Differences were considered statistically significant at P<0.05, and are indicated by *.
# [3] = target: T1, polypeptide IK34720 (RSKAKNPLYRRRRRRRRR)
molecule,measurement,setting,value
"C=C1/C(=C\C=C2/CCC[C@]3(C)[C@@H]([C@H](C)CCCC(C)(C)O)CC[C@@H]23)C[C@@H](O)C[C@@H]1O [Calcitriol, 1,25-dihydroxyvitamin D3, reference compound]",cells having CPDs (stained cells),[1],fewer stained cells
same,cells staining for MMP-1,MMP1,fewer stained cells
same,significant difference in TRS (TBA reactive substances) between Sham and UV irradiation,dermal fibroblasts,not seen
"CCNC(=O)[C@H]1O[C@@H](n2cnc3c(N)nc(NCCc4ccc(CCC(=O)O)cc4)nc32)[C@H](O)[C@@H]1O [CGS-21680, reference compound]",wound closure percentage,"[2]; Day 5 to Day 11, vs negative control (PBS)",increase wound healing compared to the negative control
rrrrrrrrrylpnkaksr ([dR][dR][dR][dR][dR][dR][dR][dR][dR][dY][dL][dP][dN][dK][dA][dK][dS][dR]; also: retro-inverso) [IK236770],wound healing (wound closure % percentage),"[2]; day 5, vs negative control",statistically significant increase in wound healing
B1,"MMP-1 activity in vitro: amount of Mca-Pro-Leu-Gly formed from the fluorogenic substrate Mca-Pro-Leu-Gly-Leu-Dap-Ala-Arg, read spectrofluorimetrically at 340 nm/400 nm",[3],inhibits MMP-1 activation in a dose dependent manner
